Series [1] has as its system Cyberlindnera jadinii. Kind of series: Antimicrobial activity against Candida utilis by two-fold serial dilution technique. Type of series: functional. Conditions: Williopsis jadinii.
Series [2] concerns Aspergillus flavus. Kind of series: Antimicrobial activity against Aspergillus flavus by two-fold serial dilution technique. Type of series: functional.
In series [3] the test system is Saccharomyces cerevisiae. Kind of series: Antimicrobial activity against Saccharomyces cerevisiae by two-fold serial dilution technique. The series is classed as functional.
For series [4], the system named is Candida albicans. Kind of series: Antimicrobial activity against Candida albicans by two-fold serial dilution technique. The series is classed as functional.
For series [5], the system named is Candida. Kind of series: Antimicrobial activity against Candida mycoderma by two-fold serial dilution technique. Type of series: functional.
Series [6] deals with Micrococcus luteus. Kind of series: Antimicrobial activity against Micrococcus luteus ATCC 4698 by two-fold serial dilution technique. Type of series: functional.
Series [7] concerns Staphylococcus aureus. Kind of series: Antimicrobial activity against methicillin-resistant Staphylococcus aureus N315 by two-fold serial dilution technique. Type of series: functional.
For series [8], the system named is Pseudomonas aeruginosa. Kind of series: Antimicrobial activity against Pseudomonas aeruginosa by two-fold serial dilution technique. The series is classed as functional.
Series [9] concerns Bacillus subtilis. Kind of series: Antimicrobial activity against Bacillus subtilis by two-fold serial dilution technique. Type of series: functional.
Series [10] has as its system Shigella dysenteriae. Kind of series: Antimicrobial activity against Shigella dysenteriae by two-fold serial dilution technique. The series is classed as functional.
For series [11], the system named is Escherichia coli. Kind of series: Antimicrobial activity against Escherichia coli JM109 by two-fold serial dilution technique. The series is classed as functional.
Series [12] can be described thus: n-Octanol-water partition coefficient, log P of the compound after 24 hrs by shake flask method. The series is classed as physicochemical.

Values after ≈ are worked out from the molar mass of the structure shown. Some results are limits rather than exact numbers.

`Cc1cc2ncn(CC(O)COc3ccc4c(C)cc(=O)oc4c3)c2cc1C` (stereo not drawn): the MIC in series [1] came out at 4 µg/mL (≈ 10.6 µM); in series [2] it was 128 µg/mL (≈ 338 µM); in series [3], 32 µg/mL (≈ 84.6 µM); in series [4], 16 µg/mL (≈ 42.3 µM); in series [5], 16 µg/mL (≈ 42.3 µM); in series [6] it was 128 µg/mL (≈ 338 µM). The MIC in series [7] was 64 µg/mL (≈ 169 µM); in series [8], 64 µg/mL (≈ 169 µM); in series [9], 128 µg/mL (≈ 338 µM); in series [10] it was 64 µg/mL (≈ 169 µM); in series [11], 128 µg/mL (≈ 338 µM). This compound displayed a lipophilicity (logP) at 24 h in [12] of 0.61.

For `Cc1cc(=O)oc2cc(OCC(O)CSc3nc4ccccc4[nH]3)c(OCC(O)CSc3nc4ccccc4[nH]3)cc12` (stereo not drawn), the minimal inhibitory concentration (MIC) in [1] came out at 2 µg/mL (≈ 3.31 µM); in series [2], 64 µg/mL (≈ 106 µM); in series [3], 16 µg/mL (≈ 26.5 µM); in series [4], 8 µg/mL (≈ 13.2 µM); in series [5], 16 µg/mL (≈ 26.5 µM); in series [6], 32 µg/mL (≈ 52.9 µM). The minimum inhibitory concentration (MIC) in [7] was 64 µg/mL (≈ 106 µM); in [8], 16 µg/mL (≈ 26.5 µM); in series [9], 64 µg/mL (≈ 106 µM); in series [10] it was 32 µg/mL (≈ 52.9 µM); in series [11] it was 0.5 µg/mL (≈ 0.827 µM). Besides, the log partition coefficient (logP) at 24 h in series [12] stood at 0.58.

Take `Cc1cc(=O)oc2cc(OCC(O)Cn3nnc4ccccc43)ccc12` (stereo not drawn): the MIC turned out to be 16 µg/mL (≈ 45.5 µM) in series [1]; 256 µg/mL (≈ 729 µM) in [2]; 8 µg/mL (≈ 22.8 µM) in series [3]; 4 µg/mL (≈ 11.4 µM) in series [4]; 16 µg/mL (≈ 45.5 µM) in series [5]; 32 µg/mL (≈ 91.1 µM) in series [6]. For the same compound, the minimum inhibitory concentration (MIC) was 16 µg/mL (≈ 45.5 µM) in series [7]; 32 µg/mL (≈ 91.1 µM) in series [8]; 16 µg/mL (≈ 45.5 µM) in series [9]; 64 µg/mL (≈ 182 µM) in series [10]; 16 µg/mL (≈ 45.5 µM) in series [11]. The same compound had a logP at 24 h in series [12] of 0.6.

As for `Cc1cc(=O)oc2cc(OCC(O)CSc3nc4ccccc4[nH]3)ccc12` (stereo not drawn), the MIC in series [1] was determined as 0.5 µg/mL (≈ 1.31 µM); in series [2], 16 µg/mL (≈ 41.8 µM); in [3], 64 µg/mL (≈ 167 µM); in series [4] it was 32 µg/mL (≈ 83.7 µM); in series [5], 16 µg/mL (≈ 41.8 µM); in series [6], 16 µg/mL (≈ 41.8 µM). Also, the minimum inhibitory concentration (MIC) in [7] turned out to be 32 µg/mL (≈ 83.7 µM); in series [8], 64 µg/mL (≈ 167 µM); in series [9] it was 32 µg/mL (≈ 83.7 µM); in series [10], 64 µg/mL (≈ 167 µM); in series [11], 0.5 µg/mL (≈ 1.31 µM). The logP at 24 h in [12] came out at 0.49.

`Cc1cc(=O)oc2cc(OCC(O)Cn3nnc4ccccc43)c(OCC(O)Cn3nnc4ccccc43)cc12` (stereo not drawn): the MIC in series [1] amounted to 16 µg/mL (≈ 29.5 µM); in series [2], 256 µg/mL (≈ 472 µM); in series [3], 32 µg/mL (≈ 59 µM); in series [4] it was 8 µg/mL (≈ 14.7 µM); in series [5], 16 µg/mL (≈ 29.5 µM); in series [6], 16 µg/mL (≈ 29.5 µM). Moreover, the MIC was 32 µg/mL (≈ 59 µM) in [7]; 32 µg/mL (≈ 59 µM) in series [8]; 64 µg/mL (≈ 118 µM) in series [9]; 64 µg/mL (≈ 118 µM) in series [10]; 32 µg/mL (≈ 59 µM) in series [11]. In series [12], this compound showed a lipophilicity (logP) at 24 h of 0.48.

For the compound `Cc1cc(=O)oc2cc(OCC3CO3)ccc12` (stereo not drawn), the minimal inhibitory concentration (MIC) was 32 µg/mL (≈ 138 µM) in [1]; 1 µg/mL (≈ 4.31 µM) in [2]; 1 µg/mL (≈ 4.31 µM) in series [3]; 16 µg/mL (≈ 68.9 µM) in [4]; 8 µg/mL (≈ 34.4 µM) in series [5]; 4 µg/mL (≈ 17.2 µM) in series [6]. Also, the MIC in [7] is 128 µg/mL (≈ 551 µM); in series [8] it was 8 µg/mL (≈ 34.4 µM); in series [9] it was 2 µg/mL (≈ 8.61 µM); in series [10], 4 µg/mL (≈ 17.2 µM); in series [11], 0.5 µg/mL (≈ 2.15 µM).

`Cc1cc(=O)oc2cc(OCC(O)Cn3cnc4ccccc43)ccc12` (stereo not drawn): the MIC in series [1] was 512 µg/mL (≈ 1460 µM); in series [2], greater than 512 µg/mL; in [3], 512 µg/mL (≈ 1460 µM); in series [4], 128 µg/mL (≈ 365 µM); in series [5], 128 µg/mL (≈ 365 µM); in series [6], 512 µg/mL (≈ 1460 µM). Further, the MIC in series [7] was 512 µg/mL (≈ 1460 µM); in [8], greater than 512 µg/mL; in series [9] it was 128 µg/mL (≈ 365 µM); in [10] it was 512 µg/mL (≈ 1460 µM); in series [11], 128 µg/mL (≈ 365 µM). In series [12], this compound displayed a logP at 24 h of 0.55.

Consider `Cc1cc2ncn(CC(O)COc3cc4oc(=O)cc(C)c4cc3OCC(O)Cn3cnc4cc(C)c(C)cc43)c2cc1C` (stereo not drawn), for which the MIC in series [1] was found to be 4 µg/mL (≈ 6.7 µM); in series [2], 64 µg/mL (≈ 107 µM); in series [3], 16 µg/mL (≈ 26.8 µM); in [4] it was 16 µg/mL (≈ 26.8 µM); in series [5], 32 µg/mL (≈ 53.6 µM); in [6], 64 µg/mL (≈ 107 µM). The MIC came out at 32 µg/mL (≈ 53.6 µM) in series [7]; 16 µg/mL (≈ 26.8 µM) in series [8]; 128 µg/mL (≈ 215 µM) in series [9]; 16 µg/mL (≈ 26.8 µM) in series [10]; 32 µg/mL (≈ 53.6 µM) in [11]. For the same compound, in series [12], the logP at 24 h is 0.61.

With `Cc1cc(=O)oc2cc(OCC3CO3)cc(OCC3CO3)c12` (stereo not drawn), the MIC was 16 µg/mL (≈ 52.6 µM) in series [1]; 16 µg/mL (≈ 52.6 µM) in series [2]; 8 µg/mL (≈ 26.3 µM) in series [3]; 8 µg/mL (≈ 26.3 µM) in [4]; 8 µg/mL (≈ 26.3 µM) in [5]; 8 µg/mL (≈ 26.3 µM) in [6]. For the same compound, the minimal inhibitory concentration (MIC) came out at 64 µg/mL (≈ 210 µM) in series [7]; 8 µg/mL (≈ 26.3 µM) in series [8]; 4 µg/mL (≈ 13.1 µM) in series [9]; 4 µg/mL (≈ 13.1 µM) in [10]; 0.5 µg/mL (≈ 1.64 µM) in series [11].

With `CCn1cc(C(=O)O)c(=O)c2cc(F)c(N3CCNCC3)cc21` [NORFLOXACIN], the MIC in [6] was found to be 2 µg/mL (≈ 6.26 µM); in series [7], 8 µg/mL (≈ 25.1 µM); in series [8], 1 µg/mL (≈ 3.13 µM); in series [9], 16 µg/mL (≈ 50.1 µM); in [10], 4 µg/mL (≈ 12.5 µM); in series [11], 16 µg/mL (≈ 50.1 µM).

As to `Cc1cc(=O)oc2cc(OCC(O)Cn3cnc4ccccc43)c(OCC(O)Cn3cnc4ccccc43)cc12` (stereo not drawn), the MIC in series [1] is 512 µg/mL (≈ 947 µM); in [2], 512 µg/mL (≈ 947 µM); in series [3] it was greater than 512 µg/mL; in series [4], greater than 512 µg/mL; in [5] it was 64 µg/mL (≈ 118 µM); in series [6], 128 µg/mL (≈ 237 µM). Further, the minimal inhibitory concentration (MIC) in [7] was 512 µg/mL (≈ 947 µM); in series [8], 128 µg/mL (≈ 237 µM); in series [9] it was greater than 512 µg/mL; in [10], greater than 512 µg/mL; in series [11] it was greater than 512 µg/mL. The compound also gave a lipophilicity (logP) at 24 h in series [12] of 0.49.

Regarding `Cc1cc(=O)oc2cc(OCC(O)Cn3cncn3)c(OCC(O)Cn3cncn3)cc12` (stereo not drawn), the MIC amounted to 4 µg/mL (≈ 9.04 µM) in series [1]; 32 µg/mL (≈ 72.3 µM) in series [2]; 32 µg/mL (≈ 72.3 µM) in [3]; 1 µg/mL (≈ 2.26 µM) in series [4]; 4 µg/mL (≈ 9.04 µM) in series [5]; 32 µg/mL (≈ 72.3 µM) in series [6]. The minimal inhibitory concentration (MIC) in [7] amounted to 8 µg/mL (≈ 18.1 µM); in series [8] it was 32 µg/mL (≈ 72.3 µM); in [9], 16 µg/mL (≈ 36.2 µM); in series [10], 16 µg/mL (≈ 36.2 µM); in [11] it was 1 µg/mL (≈ 2.26 µM). Also, the log partition coefficient (logP) at 24 h in series [12] was found to be 0.65.

With `Cc1cc(=O)oc2cc(OCC(O)Cn3cncn3)ccc12` (stereo not drawn), the MIC in series [1] was found to be 4 µg/mL (≈ 13.3 µM); in series [2], 6 µg/mL (≈ 19.9 µM); in [3] it was 32 µg/mL (≈ 106 µM); in series [4] it was 4 µg/mL (≈ 13.3 µM); in [5], 16 µg/mL (≈ 53.1 µM); in [6] it was 16 µg/mL (≈ 53.1 µM). The minimum inhibitory concentration (MIC) in [7] was determined as 32 µg/mL (≈ 106 µM); in [8] it was 4 µg/mL (≈ 13.3 µM); in series [9] it was 32 µg/mL (≈ 106 µM); in series [10], 32 µg/mL (≈ 106 µM); in [11], 64 µg/mL (≈ 212 µM). This compound displayed a lipophilicity (logP) at 24 h in [12] of 0.45.

Turning to `OC(Cn1cncn1)(Cn1cncn1)c1ccc(F)cc1F` [FLUCONAZOLE], the minimal inhibitory concentration (MIC) came out at 8 µg/mL (≈ 26.1 µM) in [1]; 256 µg/mL (≈ 836 µM) in series [2]; 16 µg/mL (≈ 52.2 µM) in series [3]; 1 µg/mL (≈ 3.27 µM) in series [4]; 4 µg/mL (≈ 13.1 µM) in series [5].

Values taken from ChEMBL document CHEMBL3352064, “Synthesis and bioactive evaluation of a novel series of coumarinazoles” (Bioorg Med Chem Lett, 2014).
